Paper PMC7915519, “Zinc(II) Complexes of Amino Acids as New Active Ingredients for Anti-Acne Dermatological Preparations” (International Journal of Molecular Sciences, 2021)

What was measured:
[1] = tested on: human epidermal keratinocytes, neonatal; test: Cytotoxicity, Presto Blue cell viability assay on human epidermal keratinocytes; format: cell-based; conditions: 24 h incubation, Hill Equation, read-out: IC50 Values (Mean ± SD) Keratinocytes
Protocol: (§1) The cytotoxicity test was conducted on a 1BR.3.N cell line (human skin fibroblasts, ECACC, co. 90020508) and human epidermal keratinocytes, neonatal (Millipore, co. SCCE020) purchased from Sigma-Aldrich (Merck, Darmstadt, Germany). The same procedure was conducted for keratinocytes in EpiGROTM human epidermal keratinocyte complete media with 6 mM L-glutamine, 0.405 EpiFactor P, 1.0 μM epinephrine, 0.5 ng/mL rh TGF-α, 100 ng/mL hydrocortisone hemisuccinate, 5 μg/mL rh insulin and apo-transferrin. The cells were maintained at 37 °C and 5% CO2 in a humidified incubator. Next, the medium was changed into a starvation medium for the 1BR.3.N cell line (EpiGROTM human epidermal keratinocyte complete media kit for keratinocytes) with a variable final concentration of five analyzed complexes (ZnGlu (1), ZnGly (2), ZnHis (3), ZnPro (4), ZnTrp (6)) and two controls, ZnPCA and ZnCl2.

[2] = tested on: human skin fibroblasts (1BR.3.N cell line); test: Cytotoxicity, Presto Blue cell viability assay on human skin fibroblasts; format: cell-based; conditions: 1BR.3.N human skin fibroblasts, 24 h incubation, Hill Equation, read-out: IC50 Values (Mean ± SD) Fibroblasts
Protocol: as §1, with “The same procedure was conducted for keratinocytes in EpiGROTM human epidermal keratinocyte complete media with 6 mM L-glutamine, 0.405 EpiFactor P, 1.0 μM epinephrine, 0.5 ng/mL rh TGF-α, 100 ng/mL hydrocortisone hemisuccinate, 5 μg/mL rh insulin and apo-transferrin.” left out

[3] = tested on: L929 fibroblast cultures; parameters: method as in PMID 28246541; conditions: murine model; read-out: IC50 against L929 fibroblast cultures; cited from earlier work
[4] = tested on: HaCaT keratinocytes; conditions: concentration equal to 100 μM; cited from earlier work
[5] = tested on: Cutibacterium acnes ATCC 6919; test: Antimicrobial activity by microdilution method (CLSI M11), anaerobic conditions; format: cell-based; conditions: C. acnes ATCC 6919, 48 h at 37 °C, tested up to 500 mg/L
Protocol: The antimicrobial potential of zinc complexes against the anaerobic strain Cutibacterium acnes ATCC 6919 was tested by the microdilution method in Brucella broth supplemented with hemin, vitamin K1 and laked horse blood according to the CLSI document M11 (9th Edition) for antimicrobial susceptibility testing of anaerobic bacteria. Antimicrobial activity testing assays were conducted in 96-well cell culture plates in anaerobic conditions. The antimicrobial properties of zinc complexes were tested up to 500 mg/L. […] The bacterial suspension and dilutions of the tested compounds were combined in equal volumes to achieve the expected concentrations of zinc amino acid complexes. Samples as well as adequate abiotic and biotic controls were incubated for 48 h at 37 °C after being placed in 96-well cell culture plates in anaerobic jars, in which anaerobic conditions were formed using Anoxomat Mark II CTS (Mart Microbiology […], the Netherlands). The minimum inhibitory concentration (MIC), expressed in mg/L, was determined as the lowest concentration of zinc amino acid complexes at which no growth of C. acnes was observed. […] The Brucella agar plates were incubated for 48 h at 37 °C after placing the plates in anaerobic jars, in which anaerobic conditions were created.

[6] = tested on: human lung fibroblast (MRC-5) cell line; parameters: method as in PMID 30594780; conditions: concentrations up to 100 µM; cited from earlier work

For `[Cl-].[Cl-].[Zn+2]` [ZnCl2], the IC50 [1] is given as 127 µM, the IC50 [2] is given as 163 ± 4.1 µM and the IC50 [3] is given as 0.928 µM. The “toxicity to HaCaT keratinocytes” value [4] was “non-toxic”.

With `NCC(=O)[O-].NCC(=O)[O-].[Zn+2]` [ZnGly (2)] the IC50 [1] was 138 ± 8.11 µM, the “MIC Value” [5] was 100 µg/mL and the IC50 [2] was 120 ± 4.61 µM.

For `O=C1CCC(C(=O)[O-])N1.O=C1CCC(C(=O)[O-])N1.[Zn+2]` (centres unmarked) [ZnPCA, zinc 2-pirrolidone 5-carboxylate], the IC50 [1] was 102 ± 2.07 µM, the “MIC Value” [5] was 175 µg/mL and the IC50 [2] was 172 ± 9.69 µM.

In the case of “copper(II) complex with 5-hydroxytryptophan”, the “toxic effects on MRC-5 cell line” value [6] is given as “no toxic effects”.
